Results: US20230150951A1, “2,5- OR 2,6-DISUBSTITUTED HYDROQUINONE DERIVATIVES WITH AT LEAST ONE CARBOXY, SULFO OR AMIDO GROUP USEFUL AS MEDICAMENTS” (OM PHARMA SA, priority 2020, published 2023)
Entries after “also recorded” stand apart in the source; their conditions may differ. Blank lines part the entries; values can stand above or below the molecule they belong to.

Key:
[1] = Stability in DMSO; assay type: physicochemical
[2] = test system: acute pancreatitis murine model; assay: Caerulein-induced acute pancreatitis murine model; assay type: in vivo, Balb/c mice; parameters: Serum IL33 level / Serum TGF-B level: unit not given here
Protocol: Therapeutic efficacy of the compounds according to the present invention was assessed on an acute pancreatitis murine model. Tissue samples were obtained to allow post in-life analysis of pancreatitis parameters. Plasma samples were also obtained to assess animal exposure levels after administration of the compounds.
Animals: A total of 70 female Balb/c mice aged 8-10 weeks weighing approximately 20-25 g were used for the study (Charles River). After 7 days acclimatization, they were allocated into the different groups. […] Cages, bedding, and water were sanitized before use. Animals were provided with Corn-o-cobs enrichment bedding to provide environment enrichment and nesting material. […] The animal holding room were maintained as follows—room temperature at 20-24° C., humidity at 30-70% and a 12 h light/dark cycle used. Although animals used in this study were immuno-competent, preparation of dosing solutions and dosing/weighing of animals were carried out in a sterile biosafety cabinet.
Final formulation was in 5% DMSO, 10% Solutol, 10% PEG400, 75% 0.9% Saline and pH adjusted to 7 with 0.5M NaOH solution.
Final formulation is in 5% DMSO, 10% Solutol, 10% PEG400, 75% 0.9% Saline and pH adjusted to 7 with 0.5M NaOH solution. For per os (PO) dosing IVc-059a is formulated in water. Drug solutions were formulated on the day of dosing.
The purposes of this study were to assess efficacy compounds in an acute pancreatitis model (14 days), generate tissue samples to allow post in-life analysis of pancreatitis parameters and generate four plasma samples to assess animal exposure levels after first and last injection obtained from blood samples taken 1 h and 24 h after first and last injection.
Study Design: On the first study day animals were randomly be assigned to treatment groups, ensuring an equal spread of bodyweight. Mice (except negative control group) were treated with test compounds were given 5 minutes prior to caerulein dosing, followed by injection with caerulein at […] via intraperitoneal route (IP) daily during the study.
Treatment of test compounds were given 5 minutes prior to caerulein dosing.
Sampling and post in-life analyses: at times indicated above a whole blood sample (60 μl) were taken from the lateral tail vein into tubes coated with K2-EDTA. Plasma samples were prepared and stored frozen at −20° C. Plasma samples were sent to client bioanalysis provider Eurofins (FR) for quantification of compound.
Terminal Sampling: Prior to termination animals were weighed. Terminal study animals were culled via CO2 inhalation. A terminal blood sample was taken via cardiac puncture and plasma prepared. Lipase and Amylase activities were measured via ELISA using commercially available ELISA kits. Remaining plasma was stored for future cytokine analyses. Pancreas tissue was resected and weighed, and a section ([…]) snap frozen and analysed for quantification of compound in pancreas sample. A section ([…]) was processed for measurement of MPO activity, IL-33 and TGF-B levels via ELISA. The remainder was fixed in formalin and embedded in paraffin wax. H&E staining was carried out and section assessed using Schmidts standard scoring system, examining: edema, inflammatory infiltration, parenchymal necrosis, haemorrhage. Massons' Trichrome staining was carried out and area covered by fibrotic tissue quantified digitally using QuPath software. Terminal serum samples was used to assess blood chemistry using an IdeXX CHEM15 and LYTE4 clip (4 animals per treatment group).
Histopathology assessment of pancreatic injury based on 4 criteria: Oedema, Inflammatory infiltration, Parenchymal necrosis, Haemorrhage and scored as described below.
Schmidt score is the evaluation of the efficacy of the compounds based on the four histopathology criteria as described in the table below.

[3] = test system: bleomycin induced pulmonary fibrosis; assay: Bleomycin induced pulmonary fibrosis, 21 days; assay type: in vivo, mice; conditions: day 21; pirfenidone 100 mg/kg, IVc-059a 15 mg/kg
Protocol: A total of 40 male Balb/c mice aged 8-10 weeks were used for the study.
Mice were anesthetized using an IP injection of xylazine and ketamine. Once an appropriate plane of anaesthesia was achieved, animals had 1.0 U/kg bleomycin sulphate instilled via intratracheal route. The total volume of liquid was 50 μL.
Dosing of IV and positive control (pirfenidone) started 24 hours after bleomycin instillation.
Drug solution was formulated immediately prior to dosing. For a dose of 15 mg/kg (enough for 12, 30 g mice) 4.5 mg of compound was weighed out. 75 μl (5%) DMSO added and mixed until drug is in solution. 150 μl (10%) solutol added and vortexed gently, 150 μl (10%) PEG400 added and vortexed gently. 1000 μl PBS (pH7) was added and matrix was measured to ensure pH 7.0 was maintained. Remaining PBS (to a total of 1500 μl) was added. Compound remained in solution. […]
Ashcroft score: Lungs from each animal were FFPE, sectioned and stained with H&E according to an in-house protocol. […] Each lung was scored using the Ashcroft grading system to measure degree of inflammation/fibrosis as per Hubner et al., 2008. […]
An entire lung from each animal was formalin fixed and stored in 70% ethanol. […] Percent area covered by trichrome staining was quantified using Qupath and ImageJ software.

[4] = cited from earlier work
[5] = 1st experiment, caerulein induced, 15 mg/kg IV, Ib-010a and IVc-059a 150 mg/kg PO, Pirfenidone 40 mg/kg IV
[6] = 1st experiment, terminal pancreatic tissue, 15 mg/kg IV, Ib-010a and IVc-059a 150 mg/kg PO, Pirfenidone 40 mg/kg IV
[7] = 1st experiment, terminal serum, 15 mg/kg IV, Ib-010a and IVc-059a 150 mg/kg PO, Pirfenidone 40 mg/kg IV
[8] = second experiment, IV, 15 mg/kg, Pirfenidone 100 mg/kg

Stability in DMSO (in words) [1]: unstable in DMSO
SMILES: O=C(O)c1cc(O)c(-c2nc3cccc(C(=O)O)c3[nH]2)cc1O [Id-030a, 2-(4-Carboxy-2,5-dihydroxyphenyl)-1H-benzo[d]imidazole-4-carboxylic acid]

Mean terminal BW (% of initial) [2, 5]: 97.6 % of initial
SMILES: Cc1ccc(=O)n(-c2ccccc2)c1 [pirfenidone, reference compound]
Acinar cell necrosis (group mean score) [2, 5]: 0.8 | Haemorrhage (group mean score) [2, 5]: 0.4 | Interstitial oedema (group mean score) [2, 5]: 1.0 | Leukocyte infiltration (group mean score) [2, 5]: 2.0 | Mean terminal pancreas weight [2, 5]: 0.136 g | Pancreas histopathology observations (H&E) [2, 5]: Mild oedema observed; also recorded: Mild haemorrhage observed; also recorded: Mild acinar cell necrosis observed; also recorded: Leukocyte infiltration observed; also recorded: Normal islet morphology observed in areas | Schmidt Score (H&E) ([2]; 1st experiment, caerulein induced, 15 mg/kg IV, Ib-010a and IVc-059a 150 mg/kg PO, Pirfenidone 40 mg/kg IV, induced + vehicle = 10, non-induced = 0): 4.1 | Pancreas IL33 level [2, 6]: 78 ± 23 | Pancreas MPO activity [2, 6]: 1.26 | Pancreas TGF-B level [2, 6]: 289 ± 170 | Serum IL33 level [2, 7]: 39.16 | Serum TGF-B level [2, 7]: 5.5 | Serum amylase level [2, 7]: 37.71 | Serum lipase level [2, 7]: 7.65 | Amylase [2, 8]: 45.171 mU/mL | IL-33 [2, 8]: 226 ± 151 ng/mL | Lipase [2, 8]: 4.541 mU/mL | MPO [2, 8]: 1.68 ± 0.44 U/mg | Schmidt Score [2, 8]: 8 ± 1 | TGF-B [2, 8]: 578 ± 230 ng/mL | Trichome staining (Fibrosis % area) [2, 8]: 1.277 ± 0.888 % area | Lipase activity in serum ([2]; second experiment, pirfenidone 100 mg/kg, compounds 15 mg/k, vs vehicle treated animals): significantly lower than that in vehicle treated animals | MPO activity in pancreatic tissue ([2]; second experiment, vs induced vehicle treated controls): significantly lower than induced vehicle treated controls | Onset of fibrosis in mouse lung (Ashcroft score) [3]: reduced the onset of fibrosis in mouse lung

SMILES: CNC(=O)c1cccc(C(=O)NC)c1O [bis (N-methyl)amide of 2-hydroxyisophthalic acid]
pKa of phenol [4]: 6.81
